This note sets out measurements from the Kinase Knowledgebase extract (Sharma et al. 2016).

Common to all, as to assay: Enzyme Assay
In assay [1] the target is CDK2 (UniProt P24941).
Assay [2] addresses CDK2 (UniProt P24941). The source holds these as a separate data set.
For assay [3], the target named is CDK2 (UniProt P24941). This is another data set of the same source.

“And” between values parts separate entries of the source, which are not always exact repeats. Identical values can stand only once.

`O=c1ccc2cnc(Nc3ccc(Br)c(C(F)(F)F)c3)nc2n1C1CCCC1`: the IC50 was determined as 220 nM against CDK2 [1] and 150 nM against CDK2 [2].

Consider `COc1ccc(Nc2ncc3ccc(=O)n(C(C)C)c3n2)cc1`, for which the IC50 was determined as 540 nM against CDK2 [1] and 392 nM at CDK2 [3].

`CCCn1c(=O)ccc2cnc(Nc3ccc(I)c(Cl)c3)nc21`: the IC50 at CDK2 [1] stood at 820 nM; at CDK2 [2], 180 nM.

Turning to `O=c1ccc2cnc(Nc3cccc(OC(F)(F)C(F)F)c3)nc2n1C1CC2CCC1C2` (configuration not stated), the IC50 amounted to 10000 nM at CDK2 [1] and 275 nM against CDK2 [3].

For `CCCCn1c(=O)ccc2cnc(Nc3cc(Cl)cc(Cl)c3)nc21`, at CDK2 [1], the IC50 is 3780 nM.

`O=c1ccc2cnc(Nc3ccc4cn[nH]c4c3)nc2n1CC1CC1`: the values for the half-maximal inhibitory concentration (IC50) against CDK2 [1] and against CDK2 [2] were 260 nM and 200 nM, respectively.

Regarding `COc1ccc(Nc2ncc3ccc(=O)n(C4CCCC4)c3n2)cc1F`, the IC50 on CDK2 [1] was 75 nM; on CDK2 [2] it was 35 nM.

With `CCC(CC)n1c(=O)ccc2cnc(Nc3cccc(C(F)(F)F)c3)nc21`, the IC50 is 600 nM against CDK2 [1] and 131 nM on CDK2 [2].

On to `CCC(CC)n1c(=O)ccc2cnc(Nc3ccc(F)c(C)c3)nc21`, for which the IC50 at CDK2 [1] is 155 nM.

Turning to `O=c1ccc2cnc(Nc3ccc(-n4cccn4)cc3)nc2n1C1CCCC1`, the IC50 was determined as 87 nM at CDK2 [1] and 35.7 nM at CDK2 [3].

`CCCn1c(=O)ccc2cnc(N(C)c3ccc(O)c(N4CCOCC4)c3)nc21`: the IC50 on CDK2 [1] turned out to be 1100 nM; against CDK2 [2], 680 nM.

For the molecule `Cc1cc(Nc2ncc3ccc(=O)n(C(C)C)c3n2)ccc1Cl`, the figures for the IC50 against CDK2 [1] and against CDK2 [2] were 350 nM and 220 nM, respectively.

For `CC(C)n1c(=O)ccc2cnc(Nc3ccc(F)c(Cl)c3)nc21`, the IC50 against CDK2 [1] was found to be 140 nM.

In turn, `O=c1ccc2cnc(Nc3ccc(N4CCCC(O)C4)cc3)nc2n1C1CCCC1` (configuration not stated) yielded an IC50 against CDK2 [1] of 44 nM.

`CCCn1c(=O)ccc2cnc(Nc3cc(OC)c(OC)c(OC)c3)nc21` showed an IC50 against CDK2 [1] of 1650 nM.

As to `O=c1ccc2cnc(Nc3ccc(N4CCCCC4)cc3)nc2n1C1CCCCC1`, the results for the IC50 at CDK2 [1] and against CDK2 [3] were 193 nM and 66.8 nM, respectively.

Regarding `CCCn1c(=O)ccc2cnc(Nc3ccc(NC(=O)OC(C)(C)C)cc3)nc21`, the half-inhibitory concentration (IC50) worked out at 2450 nM against CDK2 [1] and 820 nM on CDK2 [2].

As for `CCCn1c(=O)ccc2cnc(Nc3ccc(OC)c(O)c3)nc21`, the IC50 at CDK2 [1] is 960 nM and 1100 nM; on CDK2 [2], 240 nM and 670 nM.

Regarding `O=c1ccc2cnc(Nc3ccc(N4CCCCC4)cc3)nc2n1CCCOC1CCCCO1` (configuration not stated), the IC50 against CDK2 [1] came out at 1900 nM; against CDK2 [3], 284 nM.

For `O=c1ccc2cnc(Nc3c(F)cc(F)cc3F)nc2n1C1CCCC1`, the values for the IC50 against CDK2 [1] and on CDK2 [2] were 330 nM and 470 nM, respectively.

As for `O=c1ccc2cnc(Nc3ccc(N4CCC(CCO)CC4)cc3)nc2n1C1CCCCC1`, the IC50 against CDK2 [1] came out at 30 nM; against CDK2 [3], 14.2 nM.
